In the test the target is T1, HDAC6 (Homo sapiens, UniProt Q9UBN7).
T1 sequence (Q9UBN7 1-1215): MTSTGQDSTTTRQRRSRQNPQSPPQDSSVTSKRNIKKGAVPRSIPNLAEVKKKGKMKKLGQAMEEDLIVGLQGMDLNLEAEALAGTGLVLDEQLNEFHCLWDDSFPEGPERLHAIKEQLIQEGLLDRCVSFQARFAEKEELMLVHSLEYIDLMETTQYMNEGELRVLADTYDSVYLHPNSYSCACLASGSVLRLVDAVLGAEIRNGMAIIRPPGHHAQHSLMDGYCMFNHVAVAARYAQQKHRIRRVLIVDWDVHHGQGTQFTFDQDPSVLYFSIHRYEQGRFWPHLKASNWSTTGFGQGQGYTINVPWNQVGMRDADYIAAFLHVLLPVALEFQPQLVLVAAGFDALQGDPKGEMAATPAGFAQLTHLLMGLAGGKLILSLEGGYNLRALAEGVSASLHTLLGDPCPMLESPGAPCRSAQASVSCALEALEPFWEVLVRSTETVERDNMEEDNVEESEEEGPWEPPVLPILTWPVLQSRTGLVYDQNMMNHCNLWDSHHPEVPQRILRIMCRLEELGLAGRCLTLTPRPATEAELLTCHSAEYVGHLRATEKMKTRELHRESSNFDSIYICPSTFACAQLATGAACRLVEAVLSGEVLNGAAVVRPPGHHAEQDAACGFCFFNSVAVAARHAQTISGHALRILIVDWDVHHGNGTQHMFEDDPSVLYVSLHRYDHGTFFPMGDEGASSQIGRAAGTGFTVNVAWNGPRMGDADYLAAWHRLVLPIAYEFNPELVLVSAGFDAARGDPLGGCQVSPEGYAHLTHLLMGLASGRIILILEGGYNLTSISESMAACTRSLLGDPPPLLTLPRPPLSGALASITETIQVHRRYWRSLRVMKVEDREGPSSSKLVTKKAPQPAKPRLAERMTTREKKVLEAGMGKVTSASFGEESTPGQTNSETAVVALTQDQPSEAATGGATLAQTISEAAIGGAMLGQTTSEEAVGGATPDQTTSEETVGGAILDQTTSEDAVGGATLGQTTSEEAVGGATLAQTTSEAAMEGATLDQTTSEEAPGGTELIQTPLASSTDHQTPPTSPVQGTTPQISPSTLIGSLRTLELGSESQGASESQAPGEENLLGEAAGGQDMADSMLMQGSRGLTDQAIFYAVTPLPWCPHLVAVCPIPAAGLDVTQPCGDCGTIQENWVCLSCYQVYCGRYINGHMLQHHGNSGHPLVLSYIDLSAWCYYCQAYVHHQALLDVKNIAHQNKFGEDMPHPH
Nature of the test: Human HDAC enzyme inhibitor Fluor-de-Lys assay, HDAC6. The test is classed as biochemical.
What is called IC50 is the concentration needed to halve the response being measured. Read a low IC50 as inhibition by little substance. For `CCC(=O)CCCCC[C@H](NC(=O)[C@H]1CC12CCN(C)CC2)c1ncc(-c2ccc3c(ccc(=O)n3C)c2)o1` [Compound 109], the midpoint of inhibition, the IC50, lay at 13.4 µM.

The compound `CCC(=O)CCCCC[C@H](NC(=O)[C@H]1CC12CCN(C)CC2)c1nc(F)c(-c2cc3ccccc3nc2OC)[nH]1` [Compound 75] registered an IC50 above 45 µM.

Compound `CCC(=O)CCCCC[C@H](NC(=O)CN1CCC2(CC1)CC2)c1ncc(-c2ccc3nn(C)cc3c2)[nH]1` [Compound 155] had an IC50 of 8.94 µM.

In turn, `CCC(=O)CCCCC[C@H](NC(=O)C1CN(C)C1)c1ncc(-c2ccc3c(c2)C2CCC3C2)[nH]1` (stereo partly drawn) [Compound 73, 1-methyl-N-{(1S)-7-oxo-1-[5-(1,2,3,4-tetrahydro-1,4-methanonaphthalen-6-yl)-1H-imidazol-2-yl]nonyl}azetidine-3-carboxamide] gave an IC50 of 6.51 µM.

In turn, `CCN1CCC2(CC1)C[C@@H]2C(=O)N[C@@H](CCCCCC(=O)CC1CC1)c1ncc(-c2ccc(F)cc2)[nH]1` [Compound 201] had a half-maximal inhibitory concentration (IC50) of 35.8 µM.

`CCC(=O)CCCCC[C@H](NC(=O)[C@H]1CC12CCN(C)CC2)c1ncc(-c2cnc3cccnc3c2)[nH]1` [Compound 67]: the IC50 was determined as 1.28 µM.

Consider `C=CCN1CCC2(CC1)C[C@@H]2C(=O)N[C@@H](CCCCCC(=O)CC)c1ncc(-c2ccc3c(c2)C2CCC3N2CC=C)[nH]1` (stereo partly drawn) [Compound 179, (1S)—N-{(1S)-7-oxo-1-[5-(9-prop-2-en-1-yl-1,2,3,4-tetrahydro-1,4-epiminonaphthalen-6-yl)-1H-imidazol-2-yl]nonyl}-6-prop-2-en-1-yl-6-azaspiro[2.5]octane-1-carboxamide], for which the IC50 worked out at 9.53 µM.

`CCC(=O)CCCCC[C@H](NC(=O)C1=NOC2(CCN(CC)CC2)C1)c1ncc(-c2cc3ccc(C)nc3cc2OC)o1` [Compound 204]: 0.592 µM corresponded to half-maximal inhibition (IC50).

`CC(O)C(=O)CCCCC[C@H](NC(=O)[C@H]1CC12CCN(C)CC2)c1nc(-c2ccc(F)cc2)c[nH]1` (stereo partly drawn) [Compound 134, (1S)—N-{(1S)-1-[4-(4-fluorophenyl)-1H-imidazol-2-yl]-8-hydroxy-7-oxononyl}-6-methyl-6-azaspiro[2.5]octane-1-carboxamide] gave an IC50 of 1.76 µM.

In turn, `CCN1CCC2(CC1)C[C@@H]2C(=O)N[C@@H](CCCCCC(=O)CC1CCC1)c1ncc(-c2cc3ccc(C)nc3cc2OC)o1` [Compound 184] had an IC50 of 9.28 µM.

`CCC(=O)CCCCC[C@H](NC(=O)[C@H]1CC12CCN(CC1CC1)CC2)c1ncc(-c2ccc3nc(C4CC4)ccc3c2)[nH]1` [Compound 104]: half-maximal inhibition (IC50) required 5.3 µM.

`CCC(=O)CCCCC[C@H](NC(=O)[C@H]1CC12CCN(C)CC2)c1[nH]c(-c2ccc(F)cc2)nc1C#N` [Compound 76]: half-maximal inhibition (IC50) was put at 26.6 µM.

`CCC(=O)CCCCC[C@H](NC(=O)C1CC12CC1CCC(C2)N1C)c1ncc(-c2ccc3ncccc3c2)[nH]1` (single isomer, unassigned) [Compound 166] had a half-inhibitory concentration (IC50) of 0.229 µM.

The compound `CCC(=O)CCCCC[C@H](NC(=O)C1=NOC2(CCN(C(C)C)CC2)C1)c1ncc(-c2cc3ccccc3nc2OC)[nH]1` [Compound 106, N-{(1S)-1-[5-(2-methoxyquinolin-3-yl)-1H-imidazol-2-yl]-7-oxononyl}-8-(1-methylethyl)-1-oxa-2,8-diazaspiro[4.5]dec-2-ene-3-carboxamide] had an IC50 of 1.46 µM.

Take `CCC(=O)CCCCC[C@H](NC(=O)C1=NOC2(CCN(C)CC2)C1)c1ncc(-c2cc3ccc(C)nc3cc2F)o1` [Compound 221]: the IC50 was above 0.9 µM.

Take `CCN1CCC2(CC1)C[C@@H]2C(=O)N[C@@H](CCCCCC(=O)CC1CC1)c1ncc(-c2cc3ccc(C)nc3cc2OC)[nH]1` [Compound 165]: the IC50 is 11.9 µM.

`CCC(=O)CCCCC[C@H](NC(=O)[C@H]1CC12CCN(C)CC2)c1ncc(-c2ccc(-c3ccc(C4CC4)nc3)cc2)o1` [Compound 143] gave an IC50 of 3.66 µM.

For the compound `CCC(=O)CCCCC[C@H](NC(=O)[C@H]1CC12CCN(CC)CC2)c1ncc(-c2ccc(-c3cnc(C4CC4)cn3)cc2)o1` [Compound 129, (1S)—N-[(1S)-1-{5-[4-(5-cyclopropylpyrazin-2-yl)phenyl]-1,3-oxazol-2-yl}-7-oxononyl]-6-ethyl-6-azaspiro[2.5]octane-1-carboxamide], the IC50 was above 15 µM.

On to `CCC(=O)CCCCC[C@H](NC(=O)C1CCC2(CC1)CN(C)C2)c1ncc(-c2ccc3nn(C)cc3c2)[nH]1` [Compound 156], for which it took 7.53 µM to reach half-maximal inhibition (IC50).

`CCC(=O)CCCCC[C@H](NC(=O)C1CC12CCN(C)C(C)(C)C2)c1ncc(-c2ccc3nc(C)ccc3c2)[nH]1` (single isomer, unassigned) [Compound 133] showed an IC50 of 0.879 µM.

Turning to `CCC(=O)CCCCC[C@H](NC(=O)[C@H]1CC12CCN(CC)CC2)c1nc(-c2cc3ccc(C)nc3cc2OC)cn1COC(=O)C(C)(C)C` [Compound 215, {2-[(1S)-1-({[(1S)-6-ethyl-6-azaspiro[2.5]oct-1-yl]carbonyl}amino)-7-oxononyl]-4-(7-methoxy-2-methylquinolin-6-yl)-1H-imidazol-1-yl}methyl 2,2-dimethylpropanoate], the 50% inhibitory concentration (IC50) was above 0.9 µM.

In turn, `CCC(=O)CCCCC[C@H](NC(=O)[C@H]1CC12CCN(C)CC2)c1ncc(-c2ccc3cnc(OC)cc3c2)[nH]1` [Compound 113] gave a 50% inhibitory concentration (IC50) above 4.5 µM.

`CCC(=O)CCCCC[C@H](NC(=O)[C@H]1CC12CCN(CC)CC2)c1ncc(-c2ccc3c(=O)n(CC)ccc3c2)o1` [Compound 162] gave an IC50 of 6.53 µM.

Compound `CCC(=O)CCCCC[C@H](NC(=O)[C@H]1CC12CCN(CC)CC2)c1ncc(-c2ccc(-c3cnc(C4CC4)nc3)cc2)o1` [Compound 161] showed a half-inhibitory concentration (IC50) of 11.7 µM.

The compound `CCC(=O)CCCCC[C@H](NC(=O)[C@H]1CC12CCN(C)CC2)c1ncc(-c2ccc3c(=O)n(C)ccc3c2)o1` [Compound 137] returned a concentration for half-maximal inhibition (IC50) of 2.76 µM.

Turning to `CCC(=O)CCCCC[C@H](NC(=O)C1CC2(C1)CN(C)C2)c1ncc(-c2ccc3nn(C)cc3c2)[nH]1` [Compound 147], 3.66 µM corresponded to half-maximal inhibition (IC50).

Compound `CCC(=O)CCCCC[C@H](NC(=O)[C@H]1CC12CCN(C)CC2)c1ncc(-c2ccc3c(c2)C2CCC3C2)[nH]1` (stereo partly shown) [Compound 74] came in with a concentration for half-maximal inhibition (IC50) of 7.85 µM.

`CCC(=O)CCCCC[C@H](NC(=O)[C@H]1CC12CCN(C)CC2)c1ncc(-c2cc3ccccc3nc2OC)o1` [Compound 125] gave an IC50 of 0.254 µM.

For the compound `CCC(=O)CCCCC[C@H](NC(=O)[C@H]1CC12CCN(C)CC2)c1ncc(-c2cc3ccccc3nc2OC)o1` [Compound 77], the IC50 came to 0.198 µM.

`CCC(=O)CCCCC[C@H](NCCN(C)C)c1ncc(-c2cc3ccc(C)nc3cc2OC)[nH]1` [Compound 217, (9S)-9-{[2-(dimethylamino)ethyl]amino}-9-[5-(7-methoxy-2-methylquinolin-6-yl)-1H-imidazol-2-yl]nonan-3-one]: the concentration for half-maximal inhibition (IC50) was above 0.9 µM.

Regarding `CCC(=O)CCCCC[C@H](N)c1ncc(-c2ccc3nc(C)ccc3c2)[nH]1` [Compound 178], the concentration for half-maximal inhibition (IC50) was above 45 µM.

Compound `CCC(=O)CCCCC[C@H](NC(=O)[C@H]1CC12CCN(CC)CC2)c1ncc(-c2ccc3c(cnn3C3CC3)c2)[nH]1` [Compound 159] gave a half-maximal inhibitory concentration (IC50) of 2.95 µM.

On to `CCN1CCC2(CC1)C[C@@H]2C(=O)N[C@@H](CCCCCC(=O)CC1CC1)c1ncc(-c2cc3ccc(C)nc3cc2OC)o1` [Compound 167], for which 3.32 µM corresponded to half-maximal inhibition (IC50).

`CCC(=O)CCCCC[C@H](NC(=O)C1=NOC2(CCN(C)CC2)C1)c1ncc(-c2cc3ccccc3nc2OC)[nH]1` [Compound 105]: the IC50 was 1.51 µM.

`CCC(=O)CCCCC[C@H](NC(=O)C1=NOC2(CCN(CC3CC3)CC2)C1)c1ncc(-c2cc3ccc(C)nc3cc2OC)[nH]1` [Compound 219]: the 50% inhibitory concentration (IC50) was above 0.9 µM.

In the case of `CCC(=O)CCCCC[C@H](NC(=O)[C@H]1CC12CCN(CC1CC1)CC2)c1ncc(-c2ccc3nc(C4CC4)ccc3c2)o1` [Compound 115], the midpoint of inhibition, the IC50, lay at 4.29 µM.

Turning to `CCC(=O)CCCCC[C@H](NC(=O)[C@H]1CC12CCN(CC)CC2)c1ncc(-c2ccc3nc(C4CC4)ccc3c2)[nH]1` [Compound 101], the IC50 worked out at 7.37 µM.

On to `CCC(=O)CCCCC[C@H](NC(=O)C1=NOC2(CCN(CC)CC2)C1)c1ncc(-c2cc3ccc(C)nc3cc2OC)[nH]1` [Compound 207], for which the IC50 was found to be 1.35 µM.

In the case of `CCC(=O)CCCCC[C@H](NC(=O)C1=NOC2(CCN(C)CC2)C1)c1ncc(-c2ccc3nc(C4CC4)ccc3c2)o1` [Compound 135], the IC50 is above 15 µM.

Take `CCC(=O)CCCCC[C@H](NC(=O)[C@H]1CC12CCN(C)CC2)c1ncc(-c2ccc3oc(=O)ccc3c2)[nH]1` [Compound 138]: the IC50 is 1.47 µM.

The values above are taken from patent US12590099B2, “Inhibitors of histone deacetylase useful for the treatment or prevention of HIV infection” (Merck Sharp & Dohme LLC, priority 2018, dated 2026).
